The values that follow come from US20220296627A1, “Cytidine Derivatives and Methods of Forming Cytidine Derivatives” (Aenorasis Commercial Company of Pharmaceutical and Medical …, priority 2019, published 2022).

The structures appear in SMILES notation.

What all share (format): cell-based
For experiment [1], the system named is BXPC-3 epithelial human pancreatic adenocarcinoma cells. The experiment in a line: Cell growth assay (SRB) in BXPC-3. To be noted: for Ratio of IC50 in the presence of dipyridamole / IC50 in the absence of dipyridamole / Ratio of IC50 in the presence of, compared to in the absence of, dipyridamole: BXPC-3; for Ratio of IC50 in the presence of dipyridamole / IC50 in the absence of dipyridamole: 4-N-acyl and 4-N-phosphoryl derivatives (Table 5); for IC50: Homo sapiens, BXPC-3, BXPC-3; for Ratio of IC50 in the presence of, compared to in the absence of, dipyridamole: acetylated 4-N-acyl derivatives (Table 7). As to the method: (§1) Biological activities of the Gemcitabine derivative (which may be referred to as analogues) described above were evaluated with two assays: • 1. Cell growth assay using the SRB assay in cell lines A549/WT, SW1573/WT, PANC-01 and BXPC-3. • 2. MTT assay in human bladder cancer cell line T-24
(§2) The following cell lines were tested: • A549/WT —wild type human lung adenocarcinoma cell line (1) • SW1573/WT —wild type non-small lung human cell line (2), • PANC-01—human pancreatic cancer cell line (3) • BXPC-3 -epithelial human pancreatic adenocarcinoma cells (4).
(§3) Dipyridamole inhibits adenosine uptake by erythrocytes platelets and endothelial cells in vitro and in vivo. Thus, the present inventors recruited dipyridamole as an inhibitor of the nucleoside transporters of the tumour cells to observe the behaviour of the presently described Gemcitabine derivatives.
(§4) From the IC50 of each compound in the presence of dipyridamole, by dividing it with the IC50 of each compound in the absence of dipyridamole, the present inventors calculated a ratio that compared the efficacy of the analogous presence of dipyridamole.
(§5) Ratio=IC50 in the presence of dipyridamole/IC50 in the absence of dipyridamole • FIG. 10. Ratio of IC50 of 4-N-acyl and 4-N-phosphoryl derivatives in the presence of, compared to in the absence of, dipyridamole, in four cell lines

In experiment [2] the test system is SW1573/WT wild type non-small lung human cell line. The experiment in a line: Cell growth assay (SRB) in SW1573/WT. To be noted: for IC50: Homo sapiens, SW1573, SW 1573/WT; for Ratio of IC50 in the presence of dipyridamole / IC50 in the absence of dipyridamole / Ratio of IC50 in the presence of, compared to in the absence of, dipyridamole: SW 1573/WT; for Ratio of IC50 in the presence of dipyridamole / IC50 in the absence of dipyridamole: 4-N-acyl and 4-N-phosphoryl derivatives (Table 5); for Ratio of IC50 in the presence of, compared to in the absence of, dipyridamole: acetylated 4-N-acyl derivatives (Table 7). As to the method:
as §1, §2, §3, §4, §5

For experiment [3], the system named is A549/WT wild type human lung adenocarcinoma cell line. Briefly: Cell growth assay (SRB) in A549/WT. To be noted: for Ratio of IC50 in the presence of dipyridamole / IC50 in the absence of dipyridamole / Ratio of IC50 in the presence of, compared to in the absence of, dipyridamole: A549/WT; for Ratio of IC50 in the presence of dipyridamole / IC50 in the absence of dipyridamole: 4-N-acyl and 4-N-phosphoryl derivatives (Table 5); for IC50: Homo sapiens, A549, A549/WT; for Ratio of IC50 in the presence of, compared to in the absence of, dipyridamole: acetylated 4-N-acyl derivatives (Table 7). As to the method: as §1, §2, §3, §4, §5

The test system of experiment [4] is PANC-01 human pancreatic cancer cell line. Briefly: Cell growth assay (SRB) in PANC-01. To be noted: for Ratio of IC50 in the presence of dipyridamole / IC50 in the absence of dipyridamole: 4-N-acyl and 4-N-phosphoryl derivatives (Table 5); for IC50: Homo sapiens, Pancreatic cancer cell; for Ratio of IC50 in the presence of, compared to in the absence of, dipyridamole: acetylated 4-N-acyl derivatives (Table 7). As to the method: as §1, §2, §3, §4, §5

Setting [5] is: 4-N-acyl and 4-N-phosphoryl derivatives (Table 4).
The mark [6] stands for this setting: acetylated 4-N-acyl derivatives (Table 6).

Turning to `CCCCOC(=O)Nc1ccn(C2OC(CO)C(O)C2(F)F)c(=O)n1` (centres unmarked) [Derivative 2], the “Ratio of IC50 in the presence of dipyridamole / IC50 in the absence of dipyridamole” value in experiment [1] is recorded as 3.7; in experiment [2], 8; in experiment [3] it was 3.4; in experiment [4] it was 2.4. Besides, the IC50 in experiment [1] (setting [5]) is 340 nM; in experiment [2] (setting [5]) it was 460 nM; in experiment [3] (setting [5]), 700 nM; in experiment [4] (setting [5]), 2450 nM.

Take `O=C(Nc1ccn(C2OC(CO)C(O)C2(F)F)c(=O)n1)OCCCl` (centres unmarked) [Derivative 3A]: the “Ratio of IC50 in the presence of dipyridamole / IC50 in the absence of dipyridamole” value is recorded as 27 in experiment [1], 40.9 in experiment [2], 10.5 in experiment [3] and 0.6 in experiment [4]. Further, the IC50 in experiment [1] (setting [5]) was determined as 500 nM; in experiment [2] (setting [5]) it was 610 nM; in experiment [3] (setting [5]) it was 950 nM; in experiment [4] (setting [5]), 3000 nM.

Take `O=C1OCCN1c1ccn(C2OC(CO)C(O)C2(F)F)c(=O)n1` (centres unmarked) [Derivative 3B]: the “Ratio of IC50 in the presence of dipyridamole / IC50 in the absence of dipyridamole” value was 24 in experiment [1], 25 in experiment [2], 18.1 in experiment [3] and 23 in experiment [4]. For the same compound, the IC50 in experiment [1] (setting [5]) was 100 nM; in experiment [2] (setting [5]), 100 nM; in experiment [3] (setting [5]), 160 nM; in experiment [4] (setting [5]) it was 380 nM.

`C#CCOC(=O)Nc1ccn(C2OC(CO)C(O)C2(F)F)c(=O)n1` (centres unmarked) [Derivative 5]: the “Ratio of IC50 in the presence of dipyridamole / IC50 in the absence of dipyridamole” value in experiment [1] is on record as 23; in experiment [2], 13; in experiment [3], 11.1; in experiment [4] it was 2.7. Further, the IC50 was 240 nM in experiment [1] (setting [5]), 380 nM in experiment [2] (setting [5]), 450 nM in experiment [3] (setting [5]) and 1850 nM in experiment [4] (setting [5]).

Consider `CC(COC(=O)Nc1ccn(C2OC(CO)C(O)C2(F)F)c(=O)n1)c1ccccc1[N+](=O)[O-]` (centres unmarked) [Derivative 6], for which the “Ratio of IC50 in the presence of dipyridamole / IC50 in the absence of dipyridamole” value in experiment [1] was determined as 13.1; in experiment [2] it was 11; in experiment [3] it was 11; in experiment [4] it was 4. The IC50 in experiment [1] (setting [5]) is 340 nM; in experiment [2] (setting [5]) it was 430 nM; in experiment [3] (setting [5]), 500 nM; in experiment [4] (setting [5]), 1600 nM.

As to `CC(C)COC(=O)Nc1ccn(C2OC(CO)C(O)C2(F)F)c(=O)n1` (centres unmarked) [Derivative 8], the “Ratio of IC50 in the presence of dipyridamole / IC50 in the absence of dipyridamole” value in experiment [1] stood at 25; in experiment [2], 14; in experiment [3] it was 10.4; in experiment [4] it was 4.2. The IC50 in experiment [1] (setting [5]) was found to be 150 nM; in experiment [2] (setting [5]) it was 170 nM; in experiment [3] (setting [5]), 240 nM; in experiment [4] (setting [5]), 480 nM.

For the compound `CCOC(=O)Nc1ccn(C2OC(COC(C)=O)C(OC(C)=O)C2(F)F)c(=O)n1` (centres unmarked) [Derivative 13], the “Ratio of IC50 in the presence of, compared to in the absence of, dipyridamole” value (shortened to “Ratio of IC50 … in the absence of, dipyridamole”) was 2.8 in experiment [1], 3.6 in experiment [2], 2.85 in experiment [3] and 1 in experiment [4]. Further, the IC50 in experiment [1] (setting [6]) turned out to be 5000 nM; in experiment [2] (setting [6]), 6800 nM; in experiment [3] (setting [6]), 6300 nM; in experiment [4] (setting [6]), 25000 nM.

On to `CC(=O)OCC1OC(n2ccc(NC(=O)OCCCl)nc2=O)C(F)(F)C1OC(C)=O` (centres unmarked) [Derivative 15], for which the “Ratio of IC50 … in the absence of, dipyridamole” value in experiment [1] is on record as 3.3; in experiment [2], 4.5; in experiment [3], 3.7; in experiment [4] it was 2.5. Moreover, the IC50 in experiment [1] (setting [6]) stood at 3000 nM; in experiment [2] (setting [6]), 4000 nM; in experiment [3] (setting [6]), 3700 nM; in experiment [4] (setting [6]), 10000 nM.

In the case of `CC(=O)OCC1OC(n2ccc(N3CCOC3=O)nc2=O)C(F)(F)C1OC(C)=O` (centres unmarked) [Derivative 16], the “Ratio of IC50 … in the absence of, dipyridamole” value was 3.4 in experiment [1], 3.8 in experiment [2], 2.7 in experiment [3] and 1 in experiment [4]. For the same compound, the IC50 in experiment [1] (setting [6]) was found to be 5000 nM; in experiment [2] (setting [6]), 4200 nM; in experiment [3] (setting [6]), 6200 nM; in experiment [4] (setting [6]), 25000 nM.

On to `C#CCOC(=O)Nc1ccn(C2OC(COC(C)=O)C(OC(C)=O)C2(F)F)c(=O)n1` (centres unmarked) [Derivative 18], for which the “Ratio of IC50 … in the absence of, dipyridamole” value in experiment [1] was found to be 10.8; in experiment [2], 12.7; in experiment [3] it was 6.5; in experiment [4] it was 3.1. The concentration for half-maximal inhibition (IC50) in experiment [1] (setting [6]) is 720 nM; in experiment [2] (setting [6]), 610 nM; in experiment [3] (setting [6]), 900 nM; in experiment [4] (setting [6]), 6600 nM.

Consider `CC(=O)OCC1OC(n2ccc(NC(=O)OCC(C)c3ccccc3[N+](=O)[O-])nc2=O)C(F)(F)C1OC(C)=O` (centres unmarked) [Derivative 19], for which the “Ratio of IC50 … in the absence of, dipyridamole” value in experiment [1] amounted to 8; in experiment [2], 3.5; in experiment [3] it was 15; in experiment [4], 1.1. Further, the IC50 in experiment [1] (setting [6]) came out at 770 nM; in experiment [2] (setting [6]), 1150 nM; in experiment [3] (setting [6]), 1600 nM; in experiment [4] (setting [6]) it was 8000 nM.

As for `COc1cc(COC(=O)Nc2ccn(C3OC(COC(C)=O)C(OC(C)=O)C3(F)F)c(=O)n2)c([N+](=O)[O-])cc1OC` (centres unmarked) [Derivative 20], the “Ratio of IC50 … in the absence of, dipyridamole” value worked out at 4.6 in experiment [1], 17.54 in experiment [2], 7.5 in experiment [3] and 4 in experiment [4]. Also, the IC50 in experiment [1] (setting [6]) was 600 nM; in experiment [2] (setting [6]), 570 nM; in experiment [3] (setting [6]) it was 620 nM; in experiment [4] (setting [6]), 3900 nM.

As for `CC(=O)OCC1OC(n2ccc(NC(=O)OCC(C)C)nc2=O)C(F)(F)C1OC(C)=O` (centres unmarked) [Derivative 21], the “Ratio of IC50 … in the absence of, dipyridamole” value in experiment [1] turned out to be 2.8; in experiment [2], 3.7; in experiment [3], 2.6; in experiment [4], 1. In addition, the half-maximal inhibitory concentration (IC50) in experiment [1] (setting [6]) was 3200 nM; in experiment [2] (setting [6]), 4300 nM; in experiment [3] (setting [6]), 8000 nM; in experiment [4] (setting [6]), 25000 nM.
